Experimental data published in patent US11007232B2, “Use of neural cells derived from human pluripotent stem cells for the treatment of neurodegenerative diseases” (priority 2013, dated 2021).

Tested on: DA neuron precursor cells
Assay: Differentiation of DA neuron precursor cells into DA neurons with guggulsterone, FACS for TH
Type: cell-based, human
Conditions: guggulsterone 2.5 μM for two weeks; after 30 days of differentiation
Procedure: The DA neuron precursor cells were plated at 2000 cells/well of a 96-well plate and treated with guggulsterone (GS) at 2.5 μM for two weeks. After 30 days of differentiation, GS-treated neurons appeared mature with elaborate neurite extensions. At this stage, the derived cells expressed not only the major neuronal marker β-III-tubulin (TUJ1), but also the important DA neuron markers tyrosine hydroxylase (TH), the dopamine transporter (Dat), Foxa2, Nurr-1, and Girk2. […] The method specifically involved treating both hESC-H9-NSCs (Invitrogen) and hPSC-NSCs with Purmorphamine (2 μM) and FGF8 (100 ng/mL) in NB medium [NeuroBasal medium, 1× GlutaMAX, 1× N2/B27 Supplement (Invitrogen)] for 7 days. […] Two weeks after treatment with small molecules, all wells were visually observed and scored based on neurite density and dopamine release. For measuring neurite density, cells were fixed with 4% paraformaldehyde and phase contrast images were acquired using Cellavista Cell Imaging System (Roche Applied Science) from randomly selected fields. Neurite density was measured using the Cellavista density software image processing program. Each experimental condition was done in duplicate wells, and at least three independent experiments were conducted to acquire the final results.

## C/C=C1\C(=O)C[C@H]2[C@@H]3CCC4=CC(=O)CC[C@]4(C)[C@H]3CC[C@]12C [guggulsterone]
  cells gated TH positive (FACS analysis): more than 97%
